# Legend:
# [1] = Liver homogenate stability; format: in vitro ADME; details: 1 μM, 37° C., 120 mins
# From the text: (§1) The breakdown of a prodrug in vivo could occur in one or more of several different compartments including for example, but not limited to blood/plasma, liver, stomach, target tissue (e.g. tumour). The preferred location for optimum formation of the parent drug will depend on the disposition in vivo of the pro-drug and parent and an understanding of the optimum concentrations of each required in the circulation to maximise exposure to the active moiety in the target tissue. The potential for pro-drug molecules to deliver the active parent drug may be assessed in vitro by measuring the breakdown of a pro-drug in the presence of relevant body fluids. For the purpose of gaining a preliminary understanding of the stability of compounds of the invention to enzymatic hydrolysis in two such bodily compartments, compound turnover has been studied following incubation in whole blood and liver homogenate from mice and humans. The data obtained from these studies provide a preliminary understanding of which of the prodrugs are better able to deliver parent compound (i.e. are more rapidly broken down to parent compound) in these compartments. Further studies could also determine stability in other compartments (e.g. in the target tumours by measuring stability in tumour lysates).
# Mouse livers were obtained from 20 male mice, strain: Balb/c from stock animals. Human liver tissue was obtained from 3 individuals sourced from a UK human tissue bank. The livers were stored frozen. The livers were defrosted and then homogenised to form a homogenate of approximately 30% (w/v) in phosphate buffer, 100 mM, pH 7.4 (referred to as ‘buffer’). Homogenates were kept on ice until use.
# (§2) Each incubation consisted of a volume of 1 mL. Test compound dosing solutions were then spiked into each homogenate at a final compound concentration of 1 μM. Incubations were performed in the atmosphere in a shaking water bath at 37° C.
# (§3) An aliquot of incubation samples was removed into an equal volume of ice-cold acetonitrile at various time points. Samples (whole blood/homogenate+acetonitrile) were centrifuged and aliquots of the supernatant were analysed by HPLC-MS/MS.
# (§4) The compound X (2,4-dihydroxy-5-isopropyl-phenyl)-[5-(4-methyl-piperazin-1-ylmethyl)-1,3-dihydro-isoindol-2-yl]-methanone) and the compounds of Examples 1 to 24 were incubated in both whole blood and liver homogenate by Quotient Bioresearch (Rushden, UK). The percentage remaining of parent compound following incubation in whole blood/liver homogenate from human and mouse are set out in the table below.
# Whole blood stability = format: in vitro ADME; details: 1 μM, 37° C.
# From the text: as §1
# For these studies, human whole blood was collected from 3 male healthy volunteers in lithium heparin tubes. The blood was pooled and stored at room temperature for a maximum of 2 hours prior to initiation of incubations. Mouse blood was collected from 70 male mice, strain: Balb/c into lithium heparin tubes and pooled.
# as §2, §3, §4
SMILES,Percentage remaining Human Liver [1],Percentage remaining Mouse Liver [1],Percentage remaining Human blood (Whole blood stability; 120 mins),Percentage remaining Mouse blood (Whole blood stability; 120 mins),Percentage remaining Mouse blood (Whole blood stability; 60 mins (footnote *))
"CC(C)c1cc(C(=O)N2Cc3ccc(CN4CCN(C)CC4)cc3C2)c(O)cc1O [Compound X, (2,4-dihydroxy-5-isopropyl-phenyl)-[5-(4-methyl-piperazin-1-ylmethyl)-1,3-dihydro-isoindol-2-yl]-methanone]",94%,112%,100%,102%,
"COc1cc(O)c(C(C)C)cc1C(=O)N1Cc2ccc(CN3CCN(C)CC3)cc2C1 [Example 1, (4-Hydroxy-5-isopropyl-2-methoxy-phenyl)-[5-(4-methyl-piperazin-1-ylmethyl)-1,3-dihydro-isoindol-2-yl]-methanone]",99%,104%,100%,104%,
"COc1cc(O)c(C(=O)N2Cc3ccc(CN4CCN(C)CC4)cc3C2)cc1C(C)C [Example 2, (2-Hydroxy-5-isopropyl-4-methoxy-phenyl)-[5-(4-methyl-piperazin-1-ylmethyl)-1,3-dihydro-isoindol-2-yl]-methanone]",85%,100%,122%,129%,
"COc1cc(OC)c(C(C)C)cc1C(=O)N1Cc2ccc(CN3CCN(C)CC3)cc2C1 [Example 3, (5-Isopropyl-2,4-dimethoxy-phenyl)-[5-(4-methyl-piperazin-1-ylmethyl)-1,3-dihydro-isoindol-2-yl]-methanone]",79%,93%,107%,100%,
"C=CCOc1cc(O)c(C(C)C)cc1C(=O)N1Cc2ccc(CN3CCN(C)CC3)cc2C1 [Example 4, (2-Allyloxy-4-hydroxy-5-isopropyl-phenyl)-[5-(4-methyl-piperazin-1-ylmethyl)-1,3-dihydro-isoindol-2-yl]-methanone]",92%,63%,109%,106%,
"C=CCOc1cc(O)c(C(=O)N2Cc3ccc(CN4CCN(C)CC4)cc3C2)cc1C(C)C [Example 5, (4-Allyloxy-2-hydroxy-5-isopropyl-phenyl)-[5-(4-methyl-piperazin-1-ylmethyl)-1,3-dihydro-isoindol-2-yl]-methanone]",81%,86%,115%,124%,
"C=CCOc1cc(OCC=C)c(C(C)C)cc1C(=O)N1Cc2ccc(CN3CCN(C)CC3)cc2C1 [Example 6, (2,4-Bis-allyloxy-5-isopropyl-phenyl)-[5-(4-methyl-piperazin-1-ylmethyl)-1,3-dihydro-isoindol-2-yl]-methanone]",94%,75%,105%,125%,
"COCOc1cc(O)c(C(C)C)cc1C(=O)N1Cc2ccc(CN3CCN(C)CC3)cc2C1 [Example 7, [4-Hydroxy-5-isopropyl-2-(methoxymethyloxy)-phenyl]-[5-(4-methyl-piperazin-1-ylmethyl)-1,3-dihydro-isoindol-2-yl]-methanone]",92%,115%,109%,,104% *

# Reference: patent US8383619B2, “Pharmaceutical compounds” (Astex Therapeutics Limited, priority 2008, dated 2013)
